Values quoted from earlier work in patent publication US20240189459A1, “METASTABLE-FREE LANTHANIDE BASED CONTRAST AGENTS AND METHOD” (Inventure LLC, priority 2022, published 2024).

Details: thermodynamic stability constant of the DOTA complex with the listed metal ion

**Q.** With O=C([O-])CN1CCN(CC(=O)[O-])CCN(CC(=O)O)CCN(CC(=O)O)CC1.[Ca+2] [Ca^+2] as the compound, how does the “Stability Constant” value read?
**A.** 17.2

**Q.** Which “Stability Constant” value does the source give for O=C([O-])CN1CCN(CC(=O)[O-])CCN(CC(=O)[O-])CCN(CC(=O)[O-])CC1.[Cu+2] [Cu^+2] here?
**A.** 22.3

**Q.** For O=C([O-])CN1CCN(CC(=O)[O-])CCN(CC(=O)[O-])CCN(CC(=O)[O-])CC1.[Dy+3] [Dy^+3], which “Stability Constant” value is on record?
**A.** 24.8

**Q.** For O=C([O-])CN1CCN(CC(=O)[O-])CCN(CC(=O)[O-])CCN(CC(=O)[O-])CC1.[Eu+3] [Eu^+3], which “Stability Constant” value is on record?
**A.** 23.5

**Q.** With O=C([O-])CN1CCN(CC(=O)[O-])CCN(CC(=O)[O-])CCN(CC(=O)[O-])CC1.[Fe+3] [Fe^+3] as the compound, how does the “Stability Constant” value read?
**A.** 29.4

**Q.** Which “Stability Constant” value does the source give for O=C([O-])CN1CCN(CC(=O)[O-])CCN(CC(=O)[O-])CCN(CC(=O)[O-])CC1.[Gd+3] [Gd^+3] here?
**A.** 24.7

**Q.** For O=C([O-])CN1CCN(CC(=O)[O-])CCN(CC(=O)O)CCN(CC(=O)O)CC1.[Mg+2] [Mg^+2], which “Stability Constant” value is on record?
**A.** 11.9

**Q.** With O=C([O-])CN1CCN(CC(=O)O)CCN(CC(=O)O)CCN(CC(=O)O)CC1.[Na+] [Na^+1] as the compound, how does the “Stability Constant” value read?
**A.** 4.2

**Q.** For O=C([O-])CN1CCN(CC(=O)[O-])CCN(CC(=O)[O-])CCN(CC(=O)[O-])CC1.[Pr+3] [Pr^+3], which “Stability Constant” value is on record?
**A.** 23

**Q.** Which “Stability Constant” value does the source give for O=C([O-])CN1CCN(CC(=O)[O-])CCN(CC(=O)[O-])CCN(CC(=O)[O-])CC1.[Tm+3] [TM^+3] here?
**A.** 24.4

**Q.** For O=C([O-])CN1CCN(CC(=O)[O-])CCN(CC(=O)O)CCN(CC(=O)O)CC1.[Zn+2] [Zn^+2], which “Stability Constant” value is on record?
**A.** 20.8
